In patent US8828401B2, “Cytotoxic peptides and antibody drug conjugates thereof” (Pfizer Inc., priority 2011, dated 2014) one finds IC50 data, which are given here for 17 compounds.

For experiment [1], the system named is MDA-MB-361-DYT2 (breast cancer). Put plainly: In vitro cell assay, MTS cell viability 96 hours after treatment. To be noted: read-out: MDA-MB-361-DYT2 GMEAN IC50, MDA-MB-361-DYT2 cells; geometric mean; cytotoxic peptides. It is filed as cell-based. How it is done: (§1) Cells were treated with 3-fold serially diluted antibody-drug conjugates or free compounds (i.e., no antibody conjugated to the drug) in duplicate at 10 concentrations. Cell viability was determined by CellTiter 96® AQueous One Solution Cell Proliferation MTS Assay (Promega, Madison Wis.) 96 hours after treatment. Relative cell viability was determined as percentage of untreated control.

The subject of another experiment is N87 (gastric cancer). The description is as above. Format: cell-based. The conditions noted are these: read-out: N87 GMEAN IC50, N87 cells; geometric mean; cytotoxic peptides. As for the experimental part: as §1

Starred links: 1 amine or outer side, 2 acyl side, 3 side chain; linkers in the order of their positions; H or OH if unused. Non-standard residues stand in square brackets, D forms with d. Residues, ends and D or L forms follow the SMILES beside them. *: point of attachment. Dolaproine = CO[C@@H]([C@@H]1CCCN1)[C@@H](C)C(=O)O; X12 = O=C([C@@H](N[*:1])[C@@H]1Cc2ccccc21)[*:2]; Dil = CC[C@H](C)[C@H](NC)[C@@H](CC(=O)O)OC; Phe(4-NH2) = Nc1ccc(C[C@H](N)C(=O)O)cc1; X10 = C[C@@H](N*)[C@@H](O)c1ccccc1; NMeαMePro = CN1CCC[C@@]1(C)C(=O)*; Ac4c(3-oxa) = NC1(C(=O)O)COC1; αMeP = C[C@@]1(C(=O)O)CCCN1; dIva = CC[C@@](C)(N)C(=O)O; X1 = CN1CCC[C@]1(C)C(=O)*; NMeAib = CNC(C)(C)C(=O)O; X8 = C1=CC=CC(CCN*)C=C1; Aib = CC(C)(N)C(=O)O; X14 = c1[nH]nnc1CN*

One may read the IC50 as the concentration at which inhibition is half-maximal. Consider `CC[C@H](C)[C@@H]([C@@H](CC(=O)N1CCC[C@H]1[C@H](OC)[C@@H](C)C(=S)N[C@@H](Cc1ccccc1)c1nccs1)OC)N(C)C(=O)[C@@H](NC(=O)[C@@H](NC)C(C)C)C(C)C` [#26, N-methyl-L-valyl-N-[(3R,4S,5S)-3-methoxy-1-{(2S)-2-[(1R,2R)-1-methoxy-2-methyl-3-{[(1S)-2-phenyl-1-(1,3-thiazol-2-yl)ethyl]amino}-3-thioxopropyl]pyrrolidin-1-yl}-5-methyl-1-oxoheptan-4-yl]-N-methyl-L-valinamide], for which the IC50 was 1040 pM in experiment [1] and 543 pM in the experiment with N87 (gastric cancer).

For the compound `CC[C@H](C)[C@@H]([C@@H](CC(=O)N1CCC[C@H]1[C@H](OC)[C@@H](C)C(=S)NCCc1ccccc1)OC)N(C)C(=O)[C@@H](NC(=O)[C@@H](NC)C(C)C)C(C)C` [#36, N-methyl-L-valyl-N-{(3R,4S,5S)-3-methoxy-1-[(2S)-2-{(1R,2R)-1-methoxy-2-methyl-3-[(2-phenylethyl)amino]-3-thioxopropyl}pyrrolidin-1-yl]-5-methyl-1-oxoheptan-4-yl}-N-methyl-L-valinamide], the IC50 was 1110 pM in experiment [1] and 1200 pM in the experiment on N87 (gastric cancer).

In the case of `CC[C@H](C)[C@@H]([C@@H](CC(=O)N1CCC[C@H]1[C@H](OC)[C@@H](C)C(=S)N[C@@H](Cc1ccccc1)C(=O)OC)OC)N(C)C(=O)[C@@H](NC(=O)C(C)(C)N)C(C)C` [#45, 2-methylalanyl-N-[(3R,4S,5S)-3-methoxy-1-{(2S)-2-[(1R,2R)-1-methoxy-3-{[(2S)-1-methoxy-1-oxo-3-phenylpropan-2-yl]amino}-2-methyl-3-thioxopropyl]pyrrolidin-1-yl}-5-methyl-1-oxoheptan-4-yl]-N-methyl-L-valinamide], the figures for the IC50 (in experiment [1]; in the experiment on N87 (gastric cancer)) were 415 pM and 385 pM, respectively.

Consider `CC[C@H](C)[C@@H]([C@@H](CC(=O)N1CCC[C@H]1[C@H](OC)[C@@H](C)C(=O)NCCC1C=CC=CC=C1)OC)N(C)C(=O)[C@@H](NC(=O)C(C)(C)N)C(C)C` [#66, 2-Methylalanyl-N-[(3R,4S,5S)-1-{(2S)-2-[(1R,2R)-3-{[2-(cyclohepta-2,4,6-trien-1-yl)ethyl]amino}-1-methoxy-2-methyl-3-oxopropyl]pyrrolidin-1-yl}-3-methoxy-5-methyl-1-oxoheptan-4-yl]-N-methyl-L-valinamide] (H-[Aib]V[Dil][Dolaproine]-X8), for which the IC50 in experiment [1] was 334 pM.

As for `CC[C@H](C)[C@@H]([C@@H](CC(=O)N1CCC[C@H]1[C@H](OC)[C@@H](C)C(=O)N[C@@H](Cc1ccccc1)C(=O)OC)OC)N(C)C(=O)[C@@H](NC(=O)C(C)(C)N)C(C)C` [#70, 2-methylalanyl-N-[(3R,4S,5S)-3-methoxy-1-{(2S)-2-[(1R,2R)-1-methoxy-3-{[(2S)-1-methoxy-1-oxo-3-phenylpropan-2-yl]amino}-2-methyl-3-oxopropyl]pyrrolidin-1-yl}-5-methyl-1-oxoheptan-4-yl]-N-methyl-L-valinamide] (H-[Aib]V[Dil][Dolaproine]F-OMe), the concentration for half-maximal inhibition (IC50) in experiment [1] is 225 pM; in the experiment on N87 (gastric cancer), 327 pM.

On to `CC[C@H](C)[C@@H]([C@@H](CC(=O)N1CCC[C@H]1[C@H](OC)[C@@H](C)C(=O)N[C@@H](Cc1ccccc1)C(=O)OC)OC)N(C)C(=O)[C@@H](NC(=O)C(C)(C)CN)C(C)C` [#126, methyl N-[(2R,3R)-3-{(2S)-1-[(3R,4S,5S)-4-{[N-(3-amino-2,2-dimethylpropanoyl)-L-valyl](methyl)amino}-3-methoxy-5-methylheptanoyl]pyrrolidin-2-yl}-3-methoxy-2-methylpropanoyl]-L-phenylalaninate], for which the values for the IC50 (in experiment [1]; in the experiment with N87 (gastric cancer)) were 454 pM and 375 pM, respectively.

For the compound `CC[C@H](C)[C@@H]([C@@H](CC(=O)N1CCC[C@H]1[C@H](OC)[C@@H](C)C(=O)N[C@H](C)[C@@H](O)c1ccccc1)OC)N(C)C(=O)[C@@H](NC(=O)[C@]1(C)CCCN1)C(C)C` [#134, 2-methyl-L-prolyl-N-[(3R,4S,5S)-1-{(2S)-2-[(1R,2R)-3-{[(1S,2R)-1-hydroxy-1-phenylpropan-2-yl]amino}-1-methoxy-2-methyl-3-oxopropyl]pyrrolidin-1-yl}-3-methoxy-5-methyl-1-oxoheptan-4-yl]-N-methyl-L-valinamide] (H-[αMeP]V[Dil][Dolaproine]-X10), the IC50 in experiment [1] came out at 134 pM; in the experiment with N87 (gastric cancer), 115 pM.

Turning to `CC[C@H](C)[C@@H]([C@@H](CC(=O)N1CCC[C@H]1[C@H](OC)[C@@H](C)C(=O)N[C@H](C)[C@@H](O)c1ccccc1)OC)N(C)C(=O)[C@@H](NC(=O)C(C)(C)NC)C(C)C` [#145, N,2-dimethylalanyl-N-{(1S,2R)-4-{(2S)-2-[(1R,2R)-3-{[(1R,2S)-2-hydroxy-1-methyl-2-phenylethyl]amino}-1-methoxy-2-methyl-3-oxopropyl]pyrrolidin-1-yl}-2-methoxy-1-[(1S)-1-methylpropyl]-4-oxobutyl}-N-methyl-L-valinamide] (H-[NMeAib]V[Dil][Dolaproine]-X10), the figures for the IC50 (in experiment [1]; with N87 (gastric cancer)) were 229 pM and 167 pM, respectively.

Regarding `CC[C@H](C)[C@@H]([C@@H](CC(=O)N1CCC[C@H]1[C@H](OC)[C@@H](C)C(=O)N[C@@H](Cc1ccccc1)C(=O)OC)OC)N(C)C(=O)[C@@H](NC(=O)[C@](C)(N)CC)C(C)C` [#149, D-isovalyl-N-{(1S,2R)-4-{(2S)-2-[(1R,2R)-3-{[(1S)-1-benzyl-2-methoxy-2-oxoethyl]amino}-1-methoxy-2-methyl-3-oxopropyl]pyrrolidin-1-yl}-2-methoxy-1-[(1S)-1-methylpropyl]-4-oxobutyl}-N-methyl-L-valinamide] (H-[dIva]V[Dil][Dolaproine]F-OMe), the half-maximal inhibitory concentration (IC50) in experiment [1] was 428 pM.

As to `CC[C@H](C)[C@@H]([C@@H](CC(=O)N1CCC[C@H]1[C@H](OC)[C@@H](C)C(=O)N[C@@H](Cc1ccccc1)C(=O)O)OC)N(C)C(=O)[C@@H](NC(=O)[C@@]1(C)CCCN1C)C(C)C` [#153, 1,2-dimethyl-D-prolyl-N-{(1S,2R)-4-{(2S)-2-[(1R,2R)-3-{[(1S)-1-carboxy-2-phenylethyl]amino}-1-methoxy-2-methyl-3-oxopropyl]pyrrolidin-1-yl}-2-methoxy-1-[(1S)-1-methylpropyl]-4-oxobutyl}-N-methyl-L-valinamide] (X1-V[Dil][Dolaproine]F-OH), the IC50 in experiment [1] is 91400 pM; with N87 (gastric cancer) it was 47300 pM.

`CC[C@H](C)[C@@H]([C@@H](CC(=O)N1CCC[C@H]1[C@H](OC)[C@@H](C)C(=O)NCCC1C=CC=CC=C1)OC)N(C)C(=O)[C@@H](NC(=O)[C@]1(C)CCCN1)C(C)C` [#182, 2-methyl-L-prolyl-N-[(3R,4S,5S)-1-{(2S)-2-[(1R,2R)-3-{[2-(cyclohepta-2,4,6-trien-1-yl)ethyl]amino}-1-methoxy-2-methyl-3-oxopropyl]pyrrolidin-1-yl}-3-methoxy-5-methyl-1-oxoheptan-4-yl]-N-methyl-L-valinamide] (H-[αMeP]V[Dil][Dolaproine]-X8): the values for the concentration for half-maximal inhibition (IC50) (in experiment [1]; with N87 (gastric cancer)) were 122 pM and 148 pM, respectively.

`CC[C@H](C)[C@@H]([C@@H](CC(=O)N1CCC[C@H]1[C@H](OC)[C@@H](C)C(=O)N[C@@H](Cc1ccccc1)c1nccs1)OC)N(C)C(=O)[C@@H](NC(=O)[C@]1(C)CCCCN1)C(C)C` [#188, (2S)—N-[(2S)-1-{[(3R,4S,5S)-3-methoxy-1-{(2S)-2-[(1R,2R)-1-methoxy-2-methyl-3-oxo-3-{[(1S)-2-phenyl-1-(1,3-thiazol-2-yl)ethyl]amino}propyl]pyrrolidin-1-yl}-5-methyl-1-oxoheptan-4-yl](methyl)amino}-3-methyl-1-oxobutan-2-yl]-2-methylpiperidine-2-carboxamide]: in experiment [1], the half-inhibitory concentration (IC50) amounted to 404 pM.

Regarding `CC[C@H](C)[C@@H]([C@@H](CC(=O)N1CCC[C@H]1[C@H](OC)[C@@H](C)C(=O)N[C@@H](Cc1ccc2c(c1)CCCN2)C(=O)OC)OC)N(C)C(=O)[C@@H](NC(=O)[C@]1(C)CCCN1C)C(C)C` [#207, 1,2-dimethyl-L-prolyl-N-[(3R,4S,5S)-3-methoxy-1-{(2S)-2-[(1R,2R)-1-methoxy-3-{[(2S)-1-methoxy-1-oxo-3-(1,2,3,4-tetrahydroquinolin-6-yl)propan-2-yl]amino}-2-methyl-3-oxopropyl]pyrrolidin-1-yl}-5-methyl-1-oxoheptan-4-yl]-N-methyl-L-valinamide], the concentration for half-maximal inhibition (IC50) with N87 (gastric cancer) came to 626 pM.

Take `CC[C@H](C)[C@@H]([C@@H](CC(=O)N1CCC[C@H]1[C@H](OC)[C@@H](C)C(=O)N[C@@H](Cc1ccc(N)cc1)C(=O)OC)OC)N(C)C(=O)[C@@H](NC(=O)[C@]1(C)CCCN1C)C(C)C` [#208, 1,2-dimethyl-L-prolyl-N-[(3R,4S,5S)-1-{(2S)-2-[(1R,2R)-3-{[(2S)-3-(4-aminophenyl)-1-methoxy-1-oxopropan-2-yl]amino}-1-methoxy-2-methyl-3-oxopropyl]pyrrolidin-1-yl}-3-methoxy-5-methyl-1-oxoheptan-4-yl]-N-methyl-L-valinamide] (NMeαMePro-V[Dil][Dolaproine][Phe(4-NH2)]-OMe): the IC50 stood at 336 pM in experiment [1] and 379 pM in the experiment with N87 (gastric cancer).

With `CC[C@H](C)[C@@H]([C@@H](CC(=O)N1CCC[C@H]1[C@H](OC)[C@@H](C)C(=O)N[C@H](C(=O)OC)[C@@H]1Cc2ccccc21)OC)N(C)C(=O)[C@@H](NC(=O)C(C)(C)N)C(C)C` [#227] (H-[Aib]V[Dil][Dolaproine][X12]-OMe), the results for the IC50 (in experiment [1]; in the experiment on N87 (gastric cancer)) were 12900 pM and 19000 pM, respectively.

For the compound `CC[C@H](C)[C@@H]([C@@H](CC(=O)N1CCC[C@H]1[C@H](OC)[C@@H](C)C(=O)N[C@@H](Cc1ccccc1)C(=O)OC)OC)N(C)C(=O)[C@@H](NC(=O)C1(N)COC1)C(C)C` [#233] (H-[Ac4c(3-oxa)]V[Dil][Dolaproine]F-OMe), the IC50 in experiment [1] turned out to be 5040 pM; in the experiment on N87 (gastric cancer), 8410 pM.

For `CC[C@H](C)[C@@H]([C@@H](CC(=O)N1CCC[C@H]1[C@H](OC)[C@@H](C)C(=O)N[C@@H](Cc1ccccc1)C(=O)NCc1c[nH]nn1)OC)N(C)C(=O)[C@@H](NC(=O)C(C)(C)NC)C(C)C` [#240] (H-[NMeAib]V[Dil][Dolaproine]F-X14), the IC50 in experiment [1] worked out at 23500 pM; in the experiment with N87 (gastric cancer) it was 19900 pM.
